Reference: patent US9199988B2, “Dihydroquinazolinone analogues” (Boehringer Ingelheim International GmbH, priority 2013, dated 2015)

target: T1, first (BRD4-BD1) or the second (BRD4-BD2) bromodomain of BRD4 (Homo sapiens, UniProt O60885); assay: BRD4-H4 tetraacetylated peptide inhibition AlphaScreen; type: binding; conditions: inhibition of interaction of GST-BRD4 bromodomain with biotinylated tetraacetylated histone H4 peptide; table does not say whether BD1 or BD2
T1 construct: fused on or other part: GST tag (N-terminal fusion, used for capture on the glutathione acceptor beads)
Description: BRD4-H4 tetraacetylated peptide inhibition AlphaScreen
Compounds are diluted in serial dilution 1:5 in assay buffer from 10 mM stock in DMSO (100 μM start concentration) in white OptiPlate-384 (PerkinElmer). A mix consisting of 15 nM GST-BRD4-BD1 protein (aa 44-168) or 150 nM GST-BRD4-BD2 (aa 333-460) and 15 nM biotinylated Acetyl-Histone H4 (LysS, 8, 12, 16) peptide is prepared in assay buffer (50 mM HEPES pH=7.4; 25 mM NaCl; 0.05% Tween 20; 0.1% bovine serum albumin (BSA); 10 mM dithiothreitol (DTT)). 6 μl of the mix is added to the compound dilutions. Subsequently, 6 μl of premixed AlphaLISA Glutathione Acceptor Beads and AlphaScreen Streptavidin Donor Beads from PerkinElmer (in assay buffer at a concentration of 10 μg/ml each) are added and the samples are incubated for 30 min at RT in the dark (shaking 300 rpm). Afterwards, the signal is measured in a PerkinElmer Envision HTS Multilabel Reader using the AlphaScreen protocol from PerkinElmer. Each plate contains negative controls where biotinylated Acetyl-Histone H4 peptide and GST-BRD4-BD1 or GST-BRD4-BD2 are left out and replaced by assay buffer. Negative control values are entered as low basis value when using the software GraphPad Prism for calculations. Furthermore, a positive control (probe molecule JQ1+ with protein/peptide mix) is pipetted. Determination of IC50 values are carried out using GraphPad Prism 3.03 software (or updates thereof).

Compared with `Cc1noc(C)c1-c1ccc2c(c1)C(c1ccccc1)N(C)C(=O)N2` (stereo not shown) [Example 1, 6-(3,5-Dimethyl-isoxazol-4-yl)-3-methyl-4-phenyl-3,4-dihydro-1H-quinazolin-2-one], `Cc1noc(C)c1-c1ccc2c(c1)[C@H](c1ccccc1)N(C)C(=O)N2` [Example 2, (S) 6-(3,5-Dimethyl-isoxazol-4-yl)-3-methyl-4-phenyl-3,4-dihydro-1H-quinazolin-2-one] is 1.6-fold lower in IC50: 0.044 µM for the first, 0.027 µM for the second. The second is the more potent here.

`Cc1noc(C)c1-c1ccc2c(c1)C(c1ccccc1)N(C)C(=O)N2C` (stereo not shown) [Example 3, 6-(3,5-Dimethyl-isoxazol-4-yl)-1,3-dimethyl-4-phenyl-3,4-dihydro-1H-quinazolin-2-one] and `Cc1noc(C)c1-c1ccc2c(c1)C(c1ccccc1)N(C)C(=O)O2` (stereo not shown) [Example 8, 6-(3,5-Dimethyl-isoxazol-4-yl)-3-methyl-4-phenyl-3,4-dihydro-benzo[e][1,3]oxazin-2-one] are within 1.5-fold of each other in IC50: 0.066 µM for the first, 0.075 µM for the second.

`Cc1noc(C)c1-c1ccc2c(c1)C(c1ccccc1)N(CC1CCN(C)CC1)C(=O)N2` (stereo not shown) [Example 4, 6-(3,5-Dimethyl-isoxazol-4-yl)-3-(1-methyl-piperidin-4-ylmethyl)-4-phenyl-3,4-dihydro-1H-quinazolin-2-one] and `Cc1noc(C)c1-c1ccc2c(c1)C(c1ccccc1)N(CC1CCOCC1)C(=O)N2` (stereo not shown) [Example 5, 6-(3,5-Dimethylisoxazol-4-yl)-4-phenyl-3-(tetrahydropyran-4-ylmethyl)-1,4-dihydroquinazolin-2-one] are within 1.5-fold of each other in IC50: 0.031 µM for the first, 0.038 µM for the second.

`Cc1noc(C)c1-c1ccc2c(c1)C(c1ccccc1)N(Cc1ccccc1)C(=O)N2` (stereo not shown) [Example 6, 3-Benzyl-6-(3,5-dimethylisoxazol-4-yl)-4-phenyl-1,4-dihydroquinazolin-2-one] and `COc1ccc(CN2C(=O)Oc3ccc(-c4c(C)noc4C)cc3C2c2ccccc2)cc1` (stereo not shown) [Example 12, 6-(3,5-Dimethyl-isoxazol-4-yl)-3-(4-methoxy-benzyl)-4-phenyl-3,4-dihydro-benzo[e][1,3]oxazin-2-one] are within 1.5-fold of each other in IC50: 0.225 µM for the first, 0.241 µM for the second.

`Cc1noc(C)c1-c1ccc2c(c1)C(c1ccc(Cl)cc1)N(C)C(=O)N2` (stereo not shown) [Example 7, 4-(4-Chloro-phenyl)-6-(3,5-dimethyl-isoxazol-4-yl)-3-methyl-3,4-dihydro-1H-quinazolin-2-one] and `Cc1noc(C)c1-c1ccc2c(c1)C(c1ccccn1)N(C)C(=O)N2` (stereo not shown) [Example 13, 6-(3,5-Dimethyl-isoxazol-4-yl)-3-methyl-4-pyridin-2-yl-3,4-dihydro-1H-quinazolin-2-one] are within 1.5-fold of each other in IC50: 0.105 µM for the first, 0.119 µM for the second.

`Cc1noc(C)c1-c1ccc2c(c1)[C@H](c1ccccc1)N(C)C(=O)O2` [Example 9, (S) 6-(3,5-Dimethyl-isoxazol-4-yl)-3-methyl-4-phenyl-3,4-dihydro-benzo[e][1,3]oxazin-2-one] and `Cc1noc(C)c1-c1cnc2c(c1)C(c1ccccc1)N(C)C(=O)N2` (stereo not shown) [Example 18, 6-(3,5-Dimethyl-isoxazol-4-yl)-3-methyl-4-phenyl-3,4-dihydro-1H-pyrido[2,3-]pyrimidin-2-one] are within 1.5-fold of each other in IC50: 0.068 µM for the first, 0.076 µM for the second.

Going from `Cc1noc(C)c1-c1ccc2c(c1)C(c1ccccc1)OC(=O)N2` (stereo not shown) [Example 10, 6-(3,5-Dimethyl-isoxazol-4-yl)-4-phenyl-1,4-dihydro-benzo[d][1,3]oxazin-2-one] to `COc1noc(C)c1-c1ccc2c(c1)C(c1ccccc1)N(C)C(=O)N2` (stereo not shown) [Example 20, 6-(3-Methoxy-5-methyl-isoxazol-4-yl)-3-methyl-4-phenyl-3,4-dihydro-1H-quinazolin-2-one], the IC50 falls from 0.423 µM to 0.213 µM (2-fold). The second is the more potent here.

First: Cc1noc(C)c1-c1cc2c(cn1)NC(=O)N(C)C2c1ccccc1 (stereo not shown) [Example 15, 6-(3,5-Dimethyl-isoxazol-4-yl)-3-methyl-4-phenyl-3,4-dihydro-1H-pyrido[3,4-d]pyrimidin-2-one]
Second: Cc1noc(C)c1-c1cc2c(cn1)NC(=O)N(C)[C@H]2c1ccccc1 [Example 16, (S) 6-(3,5-Dimethyl-isoxazol-4-yl)-3-methyl-4-phenyl-3,4-dihydro-1H-pyrido[3,4-d]pyrimidin-2-one]
The IC50 of the first is 5-fold higher: 0.837 µM for the first, 0.166 µM for the second. The second is the more potent here.

Compared with `Cc1noc(C)c1-c1ccc2c(n1)C(c1ccccc1)N(C)C(=O)N2` (stereo not shown) [Example 17, 6-(3,5-Dimethyl-isoxazol-4-yl)-3-methyl-4-phenyl-3,4-dihydro-1H-pyrido[3,2-d]pyrimidin-2-one], `COc1c(-c2c(C)noc2C)ccc2c1C(c1ccccc1)N(C)C(=O)N2` (stereo not shown) [Example 21, 6-(3,5-Dimethyl-isoxazol-4-yl)-5-methoxy-3-methyl-4-phenyl-3,4-dihydro-1H-quinazolin-2-one] is 3.3-fold higher in IC50: 0.252 µM for the first, 0.825 µM for the second.

With `Cc1noc(C)c1-c1ccc2c(c1)C(C)(c1ccccc1)N(C)C(=O)N2` (stereo not shown) [Example 19, 6-(3,5-Dimethyl-isoxazol-4-yl)-3,4-dimethyl-4-phenyl-3,4-dihydro-1H-quinazolin-2-one] the IC50 was 0.031 µM.
